Measured values: article PMC11785640, “Structure-based inhibition of acetylcholinesterase and butyrylcholinesterase with 2-Aryl-6-carboxamide benzoxazole derivatives: synthesis, enzymatic assay, and in silico studies” (Molecular Diversity, 2024)

What was measured:
AChE = AChE (Electrophorus electricus, UniProt O42275); assay: biochemical; type: biochemical; details: for Ki: from Lineweaver-Burk graphs, mean ± SD, triplicate; for Selectivity index (AChE/BChE): ratio AChE/BChE
Procedure: (§1) These analogs were dissolved in DMSO at an initial concentration of 1 mg/mL. Around 1% of DMSO was present in the final reaction mixture. Acetylthiocholine iodide (AChI)/butyrylcholine iodide (BChI) were used as substrates for enzymatic reactions. […] The mixture was incubated at 20 °C for 20 min. Then, 50 µL of 5,5’-dithio-bis 2-nitro-benzoic acid (DTNB, 0.5 mM) and AChI/BChI were added and enzymatic reactions were initiated.
(§2) Lineweaver-Burk graphs were used for the calculation of Ki and the other parameters as described in prior studies. The Ki values were taken out from this graph. All analyses were conducted independently in triplicate, and result data are expressed as mean values ± SD [59].

BChE = BChE (Equus caballus, UniProt P81908); assay: biochemical; type: biochemical; details: for Ki: from Lineweaver-Burk graphs, mean ± SD, triplicate
Procedure: as §1, §2

Sequence of BChE (P81908 whole entry): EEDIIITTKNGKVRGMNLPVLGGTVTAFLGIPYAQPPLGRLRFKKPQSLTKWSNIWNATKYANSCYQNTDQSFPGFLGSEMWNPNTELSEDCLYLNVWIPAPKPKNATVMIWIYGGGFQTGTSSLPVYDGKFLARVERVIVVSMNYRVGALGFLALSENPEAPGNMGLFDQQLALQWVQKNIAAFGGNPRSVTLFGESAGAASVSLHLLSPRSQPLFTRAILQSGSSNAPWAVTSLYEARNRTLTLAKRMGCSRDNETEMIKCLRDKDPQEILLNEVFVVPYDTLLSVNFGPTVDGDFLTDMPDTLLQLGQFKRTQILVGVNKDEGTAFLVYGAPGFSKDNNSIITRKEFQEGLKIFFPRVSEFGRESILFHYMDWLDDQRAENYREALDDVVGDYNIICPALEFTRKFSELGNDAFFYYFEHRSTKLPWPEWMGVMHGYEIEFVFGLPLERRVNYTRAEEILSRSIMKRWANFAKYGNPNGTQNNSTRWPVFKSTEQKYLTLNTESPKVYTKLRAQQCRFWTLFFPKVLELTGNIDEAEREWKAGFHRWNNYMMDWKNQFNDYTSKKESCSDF
Sequence of AChE (O42275 24-633): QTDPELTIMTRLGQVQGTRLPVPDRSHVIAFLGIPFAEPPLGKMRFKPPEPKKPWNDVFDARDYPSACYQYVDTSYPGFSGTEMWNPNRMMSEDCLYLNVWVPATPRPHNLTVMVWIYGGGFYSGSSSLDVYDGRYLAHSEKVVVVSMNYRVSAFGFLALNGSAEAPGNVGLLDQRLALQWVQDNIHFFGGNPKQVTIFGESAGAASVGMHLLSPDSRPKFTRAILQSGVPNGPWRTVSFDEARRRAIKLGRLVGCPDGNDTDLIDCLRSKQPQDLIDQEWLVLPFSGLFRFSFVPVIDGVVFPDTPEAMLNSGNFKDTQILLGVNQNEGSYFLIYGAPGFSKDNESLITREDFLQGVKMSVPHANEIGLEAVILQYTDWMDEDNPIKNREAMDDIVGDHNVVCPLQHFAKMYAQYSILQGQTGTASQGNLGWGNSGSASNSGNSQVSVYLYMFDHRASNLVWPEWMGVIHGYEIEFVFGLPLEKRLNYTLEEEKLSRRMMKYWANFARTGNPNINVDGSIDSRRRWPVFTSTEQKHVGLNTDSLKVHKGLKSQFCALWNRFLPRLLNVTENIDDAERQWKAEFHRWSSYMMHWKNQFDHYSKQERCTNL

SMILES | IC50 (AChE) | Ki (AChE) | Selectivity index (AChE/BChE) (AChE) | IC50 (BChE) | Ki (BChE) | type of inhibition, AChE (AChE) | type of inhibition, BChE (BChE)
O=C(c1ccc2nc(-c3ccco3)oc2c1)N1CCOCC1 [Compound 42] | 21 nM | 14.6 ± 3.01 nM | 0.30 | 58.7 nM | 48.6 ± 4.55 nM | – | –
CCCN(CCC)C(=O)c1ccc2nc(-c3ccc(-c4ccccc4)cc3)oc2c1 [Compound 15, 2-([1,1’-Biphenyl]-4-yl)-N,N-dipropylbenzo[d]oxazole-6-carboxamide] | 40.7 nM | 38.2 ± 0.66 nM | 0.40 | 113 nM | 95.7 ± 7.32 nM | – | –
O=C(c1ccc2nc(-c3ccncc3)oc2c1)N1CCOCC1 [Compound 30, Morpholino(2-(pyridin-4-yl)benzo[d]oxazol-6-yl)methanone] | 24.3 nM | 18.3 ± 4.37 nM | 0.40 | 49.7 nM | 45.4 ± 3.04 nM | – | –
CN(C)C(=O)c1ccc2nc(-c3ccc[nH]3)oc2c1 [Compound 31, N,N-dimethyl-2-(1 H-pyrrol-2-yl)benzo[d]oxazole-6-carboxamide] | 36.8 nM | 30.7 ± 2.21 nM | 0.73 | 47.3 nM | 42 ± 6.32 nM | – | –
O=C(c1ccc2nc(-c3ccc[nH]3)oc2c1)N1CCCC1 [Compound 34, (2-(1 H-pyrrol-2-yl)benzo[d]oxazol-6-yl)(pyrrolidin-1-yl)methanone] | 26.7 nM | 15.5 ± 1.96 nM | 0.32 | 53.2 nM | 48.2 ± 2.56 nM | – | –
CN(C)C(=O)c1ccc2nc(-c3ccco3)oc2c1 [Compound 37, 2-(Furan-2-yl)-N,N-dimethylbenzo[d]oxazole-6-carboxamide] | 46.4 nM | 45.7 ± 4.3 nM | 0.37 | 147 nM | 123 ± 15.3 nM | – | –
O=C(c1ccc2nc(-c3cccs3)oc2c1)N1CCOCC1 [Compound 48, Morpholino(2-(thiophen-2-yl)benzo[d]oxazol-6-yl)methanone] | 17.9 nM | 10.6 ± 0.58 nM | 0.47 | 33 nM | 22.7 ± 3.07 nM | – | –
O=C(c1ccc2nc(-c3ccccc3)oc2c1)N1CCCC1 [Compound 10] | 35.7 nM | 46.5 ± 6.59 nM | 1.27 | 51.4 nM | 36.6 ± 11 nM | – | –
O=C(c1ccc2nc(-c3ccccc3)oc2c1)N1CCCCC1 [Compound 11] | 21.4 nM | 18.6 ± 2.58 nM | 0.25 | 61.2 nM | 74.4 ± 16.9 nM | – | –
O=C(c1ccc2nc(-c3ccco3)oc2c1)N1CCCC1 [Compound 40] | 52.1 nM | 34.9 ± 7.28 nM | 0.36 | 101 nM | 95.6 ± 20.2 nM | – | –
O=C(c1ccc2nc(-c3cccc4ccccc34)oc2c1)N1CCCCC1 [Compound 23] | 24.6 nM | 20.2 ± 1.47 nM | 0.29 | 98.3 nM | 69.4 ± 11.3 nM | – | –
CCN(CC)C(=O)c1ccc2nc(-c3ccc(-c4ccccc4)cc3)oc2c1 [Compound 14] | 30.8 nM | 19.8 ± 3.69 nM | 0.26 | 84.6 nM | 75.3 ± 13.8 nM | – | –
CCN(CC)C(=O)c1ccc2nc(-c3ccccc3)oc2c1 [Compound 8, N,N-diethyl-2-phenylbenzo[d]oxazole-6-carboxamide] | 34 nM | 30.6 ± 3.34 nM | 0.40 | 74 nM | 77 ± 5.25 nM | – | –
O=C(c1ccc2nc(-c3ccncc3)oc2c1)N1CCCC1 [Compound 28] | 40.5 nM | 47.9 ± 4.7 nM | 0.91 | 57.2 nM | 52.9 ± 11.7 nM | – | –
O=C(c1ccc2nc(-c3cccs3)oc2c1)N1CCCC1 [Compound 46, Pyrrolidin-1-yl(2-(thiophen-2-yl)benzo[d]oxazol-6-yl)methanone] | 31.5 nM | 29.2 ± 0.64 nM | 0.33 | 84.3 nM | 87.5 ± 13.6 nM | – | –
CCCN(CCC)C(=O)c1ccc2nc(-c3ccco3)oc2c1 [Compound 39, 2-(Furan-2-yl)-N,N-dipropylbenzo[d]oxazole-6-carboxamide] | 28 nM | 38.5 ± 8.48 nM | 0.59 | 82.2 nM | 65.2 ± 8.33 nM | – | –
O=C(c1ccc2nc(-c3ccc(-c4ccccc4)cc3)oc2c1)N1CCCC1 [Compound 16, (2-([1,1’-Biphenyl]-4-yl)benzo[d]oxazol-6-yl)(pyrrolidin-1-yl)methanone] | 26.3 nM | 26.7 ± 5.13 nM | 0.32 | 86.2 nM | 84 ± 12.4 nM | – | –
CCN(CC)C(=O)c1ccc2nc(-c3ccncc3)oc2c1 [Compound 26, N,Ndiethyl-2-(pyridin-4-yl)benzo[d]oxazole-6-carboxamide] | 48.1 nM | 83.1 ± 1.33 nM | 1.53 | 76.2 nM | 54.4 ± 4.85 nM | – | –
O=C(c1ccc2nc(-c3ccncc3)oc2c1)N1CCCCC1 [Compound 29, Piperidin-1-yl(2-(pyridin-4-yl)benzo[d]oxazol-6-yl)methanone] | 28 nM | 27.4 ± 2.53 nM | – | 54.1 nM | 47.9 ± 8.42 nM | – | –
CCCN(CCC)C(=O)c1ccc2nc(-c3ccccc3)oc2c1 [Compound 9, 2-Phenyl-N,Ndipropylbenzo[d]oxazole-6-carboxamide] | 48.8 nM | 59.4 ± 3.69 nM | 0.53 | 116 nM | 111 ± 4.67 nM | – | –
CCN(CC)C(=O)c1ccc2nc(-c3ccco3)oc2c1 [Compound 38, N,N-diethyl-2-(furan-2-yl)benzo[d]oxazole-6-carboxamide] | 52.8 nM | 41.2 ± 7.41 nM | 0.69 | 70.4 nM | 59.4 ± 8.01 nM | – | –
CCN(CC)C(=O)c1ccc2nc(-c3ccc[nH]3)oc2c1 [Compound 32, N,N-diethyl-2-(1 H-pyrrol-2-yl)benzo[d]oxazole-6-carboxamide] | 41.7 nM | 47.5 ± 9.8 nM | 2.07 | 30.1 nM | 23 ± 1.52 nM | – | –
CCCN(CCC)C(=O)c1ccc2nc(-c3cccs3)oc2c1 [Compound 45, N,Ndipropyl-2-(thiophen-2-yl)benzo[d]oxazole-6-carboxamide] | 30.1 nM | 21.8 ± 1.45 nM | 0.30 | 85.2 nM | 72.5 ± 12.6 nM | – | –
O=C(c1ccc2nc(-c3cccc4ccccc34)oc2c1)N1CCCC1 [Compound 22] | 43 nM | 41.9 ± 5.64 nM | 0.58 | 124 nM | 72.5 ± 5.66 nM | – | –
O=C(c1ccc2nc(-c3ccc(-c4ccccc4)cc3)oc2c1)N1CCOCC1 [Compound 18, (2-([1,1’-Biphenyl]-4-yl)benzo[d]oxazol-6-yl)(morpholino)methanone] | 21.3 nM | 20.9 ± 4.22 nM | 0.37 | 65.1 nM | 56.7 ± 1.57 nM | – | –
O=C(c1ccc2nc(-c3ccc[nH]3)oc2c1)N1CCOCC1 [Compound 36, (2-(1 H-pyrrol-2-yl)benzo[d]oxazol-6-yl)(morpholino)methanone] | 12.6 nM | 7.74 ± 0.75 nM | 0.38 | 25.4 nM | 20.3 ± 1.56 nM | mixed-type | mixed-type
